Drawing on patent US20250049765A1, “BICYCLO [3.2.0] HEPTANE BIS(AMIDE) RXFP1 AGONISTS” (BRISTOL-MYERS SQUIBB COMPANY, priority 2021, published 2025), this text covers first-phase pharmacokinetic half-life and EC50 for 6 compounds.

human RXFP1, sequence (Q9HBX9 whole entry): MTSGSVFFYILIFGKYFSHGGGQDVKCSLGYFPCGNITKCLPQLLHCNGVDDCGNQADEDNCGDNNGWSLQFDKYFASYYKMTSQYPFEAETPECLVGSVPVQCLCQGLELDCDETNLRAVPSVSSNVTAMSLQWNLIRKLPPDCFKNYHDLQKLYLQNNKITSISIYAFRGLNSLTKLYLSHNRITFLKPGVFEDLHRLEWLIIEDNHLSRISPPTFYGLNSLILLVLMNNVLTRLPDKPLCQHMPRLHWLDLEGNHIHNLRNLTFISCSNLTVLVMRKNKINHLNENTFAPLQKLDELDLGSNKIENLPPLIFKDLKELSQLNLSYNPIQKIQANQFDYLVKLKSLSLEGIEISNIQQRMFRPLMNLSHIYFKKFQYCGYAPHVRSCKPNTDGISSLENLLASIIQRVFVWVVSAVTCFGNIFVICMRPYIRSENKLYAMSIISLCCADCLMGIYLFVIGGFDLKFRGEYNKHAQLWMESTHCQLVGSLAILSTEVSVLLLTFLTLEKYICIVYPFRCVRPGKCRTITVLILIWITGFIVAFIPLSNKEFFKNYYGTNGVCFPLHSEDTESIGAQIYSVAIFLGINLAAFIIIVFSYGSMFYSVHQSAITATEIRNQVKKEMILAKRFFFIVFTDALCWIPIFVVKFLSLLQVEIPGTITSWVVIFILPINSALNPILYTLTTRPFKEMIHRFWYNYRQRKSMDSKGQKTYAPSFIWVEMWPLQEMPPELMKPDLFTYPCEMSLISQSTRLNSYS

Test system in one series: not given
Assay: not given
To be noted: intravenous (IV) formulation; cited from earlier work.
For Serelaxin, the first-phase pharmacokinetic half-life is 5.4 min.

The target in another series is human RXFP1 (Homo sapiens (Human), UniProt Q9HBX9). Nature of the series: hRXFP1 HEK293 cAMP assay. Type of series: cell-based. Conditions: HEK293 cells stably expressing human RXFP1; 30 min at room temperature; HTRF cAMP. On the procedure:
RXFP1 Cyclic Adenosine Monophosphate (CAMP) Assays. Human embryonic kidney cells 293 (HEK293) cells and HEK293 cells stably expressing human RXFP1, were cultured in MEM medium supplemented with 10% qualified FBS, and 300 μg/ml hygromycin (Life Technologies). Cells were dissociated and suspended in assay buffer. The assay buffer was HBSS buffer (with calcium and magnesium) containing 20 mM HEPES, 0.05% BSA, and 0.5 mM IBMX. Cells (3000 cells per well, except 1500 cell per well for HEK293 cells stably expressing human RXFP1) were added to 384-well Proxiplates (Perkin-Elmer). Cells were immediately treated with test compounds in DMSO (2% final) at final concentrations in the range of 0.010 nM to 50 μM. Cells were incubated for 30 min at room temperature. The level of intracellular cAMP was determined using the HTRF HiRange CAMP assay reagent kit (Cisbio) according to manufacturer's instructions. Solutions of cryptate conjugated anti-cAMP and d2 fluorophore-labelled cAMP were made in a supplied lysis buffer separately. Upon completion of the reaction, the cells were lysed with equal volume of the d2-cAMP solution and anti-cAMP solution. After a 1 h room temperature incubation, time-resolved fluorescence intensity was measured using the Envision (Perkin-Elmer) at 400 nm excitation and dual emission at 590 nm and 665 nm. A calibration curve was constructed with an external cAMP standard at concentrations ranging from 2.7 μM to 0.1 μM by plotting the fluorescent intensity ratio from 665 nm emission to the intensity from the 590 nm emission against cAMP concentrations. The potency and activity of a compound to […] cAMP production was then determined by fitting to a 4-parametric logistic equation from a plot of cAMP level versus compound concentrations.
The examples disclosed below were tested in the human RXFP1 (hRXFP1) HEK293 cAMP assay described above and found to have agonist activity. Table A lists EC50 values in the hRXFP1 HEK293 cAMP assay measured for the examples.
`COc1ccc(-c2cc(C(=O)O)ccc2F)cc1C(=O)N[C@H]1[C@@H]2CCC[C@@H]2[C@H]1C(=O)Nc1ccc(F)c(C(F)(F)F)c1` [Example 1, 6-fluoro-3′-(((1S,5R,6S,7R)-7-((4-fluoro-3-(trifluoromethyl)phenyl)carbamoyl)bicyclo[3.2.0]heptan-6-yl)carbamoyl)-4′-methoxy-[1,1′-biphenyl]-3-carboxylic acid] displayed an EC50 of 1190 nM. `COc1ccc(C#CCO)cc1C(=O)N[C@H]1[C@@H]2CCC[C@@H]2[C@H]1C(=O)Nc1ccc(F)c(C(F)(F)F)c1` [Example 2, (1R,5S,6R,7S)—N-(4-fluoro-3-(trifluoromethyl)phenyl)-7-(5-(3-hydroxyprop-1-yn-1-yl)-2-methoxybenzamido) bicyclo[3.2.0]heptane-6-carboxamide]: the midpoint of the response, the EC50, lay at 823 nM. In the case of `COc1ccc(C2=NOC3CC(O)CC23)cc1C(=O)NC1C2CCCC2C1C(=O)Nc1ccc(F)c(C(F)(F)F)c1` [Example 3, (1R,5S,6R,7S)-N-(4-fluoro-3-(tri-fluoromethyl)-phenyl)-7-(5-(5-hydroxy-3a,5,6,6a-tetrahydro-4H-cyclopenta[d]isox-azol-3-yl)-2-meth-oxybenzamido)-bicyclo[3.2.0] heptane-6-carbox-amide], the EC50 worked out at 916 nM. The EC50 values of the last two compounds are within 1.5-fold of each other. The compound `COc1ccc(C2=NOC(CO)C2)cc1C(=O)NC1C2CCCC2C1C(=O)Nc1ccc(F)c(C(F)(F)F)c1` [Example 5, (1R,5S,6R,7S)-N-(4-fluoro-3-(tri-fluoromethyl)-phenyl)-7-(5-(5-(hydroxymethyl)-4,5-dihydroisox-azol-3-yl)-2-meth-oxybenzamido)-bicyclo[3.2.0] heptane-6-carbox-amide] gave a 50% effective concentration (EC50) of 2230 nM.

With `COc1ccc(-c2cc(C(OC(=O)Nc3ccccc3)C(=O)O)ccc2F)cc1C(=O)N[C@H]1[C@@H]2CCC[C@@H]2[C@H]1C(=O)Nc1ccc(F)c(C(F)(F)F)c1` (stereo partly drawn) [Example 7, 2-(6-fluoro-3′-(((1S,5R,6S,7R)-7-((4-fluoro-3-(trifluoromethyl)phenyl)carbamoyl)bicyclo[3.2.0]heptan-6-yl)carbamoyl)-4′-methoxy-[1,1′-biphenyl]-3-yl)-2-((phenylcarbamoyl)oxy) acetic acid], the response was half-maximal at 12 nM (EC50).

As usually defined, the EC50 is the concentration that produces a half-maximal response.
